Test results published in PMC8550792, “Evolution of kinase polypharmacology across HSP90 drug discovery” (Cell Chemical Biology, 2021).

How the values were obtained:
Test in all cases: biochemical
Format in all cases: biochemical
[1] = biological target: T1, 382 unique human kinases (Homo sapiens, UniProt Q9UKI8); settings: TLK1, 10 uM; for remaining activity at 10 µM: read-out: % Enzyme Activity (relative to DMSO controls)
T1 construct: purchased Reaction Biology (HotSpot contract assay)
T1 sequence (Q9UKI8 1-766): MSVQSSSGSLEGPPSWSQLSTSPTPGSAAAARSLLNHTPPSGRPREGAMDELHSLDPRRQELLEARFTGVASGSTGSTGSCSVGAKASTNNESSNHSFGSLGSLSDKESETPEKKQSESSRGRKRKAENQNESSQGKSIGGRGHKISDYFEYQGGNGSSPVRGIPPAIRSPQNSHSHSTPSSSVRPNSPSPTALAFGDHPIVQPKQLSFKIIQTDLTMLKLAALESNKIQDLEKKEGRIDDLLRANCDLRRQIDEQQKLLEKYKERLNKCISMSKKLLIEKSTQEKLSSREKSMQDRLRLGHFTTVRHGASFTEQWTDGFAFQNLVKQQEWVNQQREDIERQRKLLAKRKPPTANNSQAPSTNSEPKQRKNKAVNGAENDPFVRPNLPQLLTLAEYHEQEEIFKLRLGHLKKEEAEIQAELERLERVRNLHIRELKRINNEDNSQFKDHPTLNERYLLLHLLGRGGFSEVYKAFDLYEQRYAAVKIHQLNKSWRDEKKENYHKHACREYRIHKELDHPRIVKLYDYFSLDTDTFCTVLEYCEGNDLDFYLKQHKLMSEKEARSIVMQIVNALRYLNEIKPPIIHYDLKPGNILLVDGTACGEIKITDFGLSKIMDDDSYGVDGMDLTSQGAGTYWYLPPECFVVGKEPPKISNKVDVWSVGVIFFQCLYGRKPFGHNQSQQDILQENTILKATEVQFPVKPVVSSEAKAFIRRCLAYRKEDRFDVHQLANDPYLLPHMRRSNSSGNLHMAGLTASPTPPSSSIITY

[2] = biological target: T2, 382 unique human kinases (Homo sapiens, UniProt P52333); settings: JAK3, 10 uM; for remaining activity at 10 µM: read-out: % Enzyme Activity (relative to DMSO controls)
T2 construct: purchased Reaction Biology (HotSpot contract assay)
T2 sequence (P52333 1-1124): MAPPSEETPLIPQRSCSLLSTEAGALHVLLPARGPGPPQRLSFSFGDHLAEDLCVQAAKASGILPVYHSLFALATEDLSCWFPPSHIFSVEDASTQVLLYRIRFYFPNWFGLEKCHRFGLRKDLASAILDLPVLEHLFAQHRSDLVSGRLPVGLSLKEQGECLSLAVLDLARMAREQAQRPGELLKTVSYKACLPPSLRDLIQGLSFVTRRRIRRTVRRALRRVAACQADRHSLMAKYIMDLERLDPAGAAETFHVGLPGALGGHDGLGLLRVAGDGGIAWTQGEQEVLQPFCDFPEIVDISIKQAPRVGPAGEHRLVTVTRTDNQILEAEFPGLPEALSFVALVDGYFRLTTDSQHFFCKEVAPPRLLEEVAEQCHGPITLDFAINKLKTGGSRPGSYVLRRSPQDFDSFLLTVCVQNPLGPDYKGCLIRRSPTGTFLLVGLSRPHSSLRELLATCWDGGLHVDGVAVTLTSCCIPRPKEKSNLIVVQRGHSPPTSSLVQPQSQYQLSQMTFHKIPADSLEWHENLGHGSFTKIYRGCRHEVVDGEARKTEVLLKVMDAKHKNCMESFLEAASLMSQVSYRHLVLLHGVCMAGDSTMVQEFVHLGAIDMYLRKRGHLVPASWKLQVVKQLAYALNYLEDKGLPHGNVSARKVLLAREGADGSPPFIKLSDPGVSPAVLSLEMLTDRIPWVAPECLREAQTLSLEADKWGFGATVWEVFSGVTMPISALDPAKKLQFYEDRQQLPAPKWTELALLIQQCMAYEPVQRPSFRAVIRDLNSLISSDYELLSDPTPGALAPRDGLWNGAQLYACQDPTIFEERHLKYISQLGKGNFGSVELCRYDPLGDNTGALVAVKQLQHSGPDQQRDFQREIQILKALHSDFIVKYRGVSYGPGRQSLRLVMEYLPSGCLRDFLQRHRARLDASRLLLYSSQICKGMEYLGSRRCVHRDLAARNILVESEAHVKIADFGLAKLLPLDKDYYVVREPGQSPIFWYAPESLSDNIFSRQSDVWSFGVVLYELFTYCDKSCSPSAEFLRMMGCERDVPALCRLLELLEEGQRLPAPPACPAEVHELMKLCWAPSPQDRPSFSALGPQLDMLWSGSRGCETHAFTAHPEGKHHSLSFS

[3] = biological target: T3, 382 unique human kinases (Homo sapiens, UniProt P00533); settings: EGFR, 10 uM; for remaining activity at 10 µM: read-out: % Enzyme Activity (relative to DMSO controls)
T3 construct: purchased Reaction Biology (HotSpot contract assay)
T3 sequence (P00533 25-1210): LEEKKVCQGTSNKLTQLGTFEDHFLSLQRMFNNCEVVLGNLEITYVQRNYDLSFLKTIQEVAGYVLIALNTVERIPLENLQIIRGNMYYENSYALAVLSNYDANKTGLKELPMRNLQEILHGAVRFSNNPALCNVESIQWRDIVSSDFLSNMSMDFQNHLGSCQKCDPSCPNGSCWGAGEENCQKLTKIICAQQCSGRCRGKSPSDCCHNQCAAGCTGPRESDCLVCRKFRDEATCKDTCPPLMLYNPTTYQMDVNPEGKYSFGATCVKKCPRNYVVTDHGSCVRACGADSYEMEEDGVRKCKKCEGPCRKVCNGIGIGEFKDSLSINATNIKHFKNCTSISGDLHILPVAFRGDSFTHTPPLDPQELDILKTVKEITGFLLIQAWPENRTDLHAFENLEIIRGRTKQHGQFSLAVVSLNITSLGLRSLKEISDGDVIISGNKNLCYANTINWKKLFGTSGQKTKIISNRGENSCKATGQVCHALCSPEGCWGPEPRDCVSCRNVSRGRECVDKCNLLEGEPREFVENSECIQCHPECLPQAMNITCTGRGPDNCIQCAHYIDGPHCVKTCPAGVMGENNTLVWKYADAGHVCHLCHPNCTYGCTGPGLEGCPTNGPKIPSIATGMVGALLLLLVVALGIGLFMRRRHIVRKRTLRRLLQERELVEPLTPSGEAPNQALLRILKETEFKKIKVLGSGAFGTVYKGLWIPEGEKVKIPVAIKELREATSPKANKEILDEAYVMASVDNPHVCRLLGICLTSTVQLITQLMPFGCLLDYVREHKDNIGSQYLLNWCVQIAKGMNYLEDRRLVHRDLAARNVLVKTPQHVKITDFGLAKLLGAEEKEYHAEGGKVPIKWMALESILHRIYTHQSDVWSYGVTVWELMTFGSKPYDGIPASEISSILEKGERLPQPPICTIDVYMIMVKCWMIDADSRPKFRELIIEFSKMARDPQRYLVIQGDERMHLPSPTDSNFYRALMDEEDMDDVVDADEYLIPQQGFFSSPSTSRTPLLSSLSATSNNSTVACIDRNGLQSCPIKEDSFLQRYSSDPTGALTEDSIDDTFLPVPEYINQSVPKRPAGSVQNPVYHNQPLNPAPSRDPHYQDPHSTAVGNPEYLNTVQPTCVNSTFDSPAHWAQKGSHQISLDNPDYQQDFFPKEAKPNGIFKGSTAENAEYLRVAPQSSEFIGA

[4] = biological target: T4, 382 unique human kinases (Homo sapiens, UniProt Q8TDC3); settings: kinase BRSK1, compound 10 uM; for remaining activity at 10 µM: read-out: % Enzyme Activity (relative to DMSO controls)
T4 construct: purchased Reaction Biology (HotSpot contract assay)
T4 sequence (Q8TDC3 1-778): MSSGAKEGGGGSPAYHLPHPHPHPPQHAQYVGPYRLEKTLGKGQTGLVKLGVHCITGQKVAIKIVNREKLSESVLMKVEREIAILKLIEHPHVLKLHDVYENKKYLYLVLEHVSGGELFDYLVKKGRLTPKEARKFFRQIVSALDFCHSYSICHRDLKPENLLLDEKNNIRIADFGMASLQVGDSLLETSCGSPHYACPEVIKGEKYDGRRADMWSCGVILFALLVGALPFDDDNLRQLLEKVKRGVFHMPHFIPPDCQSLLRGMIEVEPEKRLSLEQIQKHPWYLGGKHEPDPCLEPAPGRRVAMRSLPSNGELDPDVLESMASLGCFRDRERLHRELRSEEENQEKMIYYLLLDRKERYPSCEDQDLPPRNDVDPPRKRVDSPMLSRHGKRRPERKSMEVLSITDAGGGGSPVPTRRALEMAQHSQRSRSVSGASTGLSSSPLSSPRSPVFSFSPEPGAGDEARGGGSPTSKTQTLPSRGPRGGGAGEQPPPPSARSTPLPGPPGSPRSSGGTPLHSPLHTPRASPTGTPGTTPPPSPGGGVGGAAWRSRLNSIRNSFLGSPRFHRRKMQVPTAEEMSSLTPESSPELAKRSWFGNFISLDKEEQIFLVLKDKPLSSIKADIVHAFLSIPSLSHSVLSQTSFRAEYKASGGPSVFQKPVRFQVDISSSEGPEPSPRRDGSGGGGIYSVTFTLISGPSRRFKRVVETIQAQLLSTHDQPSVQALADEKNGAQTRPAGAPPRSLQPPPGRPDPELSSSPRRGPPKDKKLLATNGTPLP

[5] = biological target: T5, 382 unique human kinases (Homo sapiens, UniProt P21802); settings: FGFR2, 10 uM; for remaining activity at 10 µM: read-out: % Enzyme Activity (relative to DMSO controls)
T5 construct: purchased Reaction Biology (HotSpot contract assay)
T5 sequence (P21802 22-821): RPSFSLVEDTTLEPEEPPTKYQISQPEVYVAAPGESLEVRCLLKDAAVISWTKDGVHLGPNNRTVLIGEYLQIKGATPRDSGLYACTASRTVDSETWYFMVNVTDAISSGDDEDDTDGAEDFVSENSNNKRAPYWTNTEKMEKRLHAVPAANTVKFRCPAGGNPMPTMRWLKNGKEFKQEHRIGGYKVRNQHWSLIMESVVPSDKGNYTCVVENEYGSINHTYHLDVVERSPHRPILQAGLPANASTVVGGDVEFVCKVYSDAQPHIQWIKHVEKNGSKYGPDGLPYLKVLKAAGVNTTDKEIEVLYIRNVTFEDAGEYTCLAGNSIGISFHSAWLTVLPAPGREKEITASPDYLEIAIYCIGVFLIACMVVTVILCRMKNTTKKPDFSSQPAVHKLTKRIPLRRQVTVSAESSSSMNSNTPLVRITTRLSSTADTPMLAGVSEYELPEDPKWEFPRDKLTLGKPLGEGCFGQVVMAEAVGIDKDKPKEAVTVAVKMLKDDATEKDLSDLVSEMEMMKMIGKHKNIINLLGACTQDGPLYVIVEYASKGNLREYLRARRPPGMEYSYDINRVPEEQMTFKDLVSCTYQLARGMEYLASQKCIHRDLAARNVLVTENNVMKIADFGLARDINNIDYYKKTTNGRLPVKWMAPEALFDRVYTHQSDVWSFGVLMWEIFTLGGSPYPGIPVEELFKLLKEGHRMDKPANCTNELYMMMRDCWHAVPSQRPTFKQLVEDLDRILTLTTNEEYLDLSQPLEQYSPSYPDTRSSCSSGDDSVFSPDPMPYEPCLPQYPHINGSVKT

CC(C)c1cc(-c2n[nH]c(=O)n2-c2ccc3c(ccn3C)c2)c(O)cc1O [Ganetespib (STA9090)]
remaining activity at 10 µM [1]: 65.8%
remaining activity at 10 µM [2]: 60.1%
remaining activity at 10 µM [3]: 76%
remaining activity at 10 µM [4]: 81.4%
remaining activity at 10 µM [5]: 68.3%

CCNC(=O)c1noc(-c2cc(C(C)C)c(O)cc2O)c1-c1ccc(CN2CCOCC2)cc1 [Luminespib (AUY-922)]
% Enzyme Activity (relative to DMSO controls) [1]: 84.15%
remaining activity at 10 µM [1]: 86.2%
% Enzyme Activity (relative to DMSO controls) [2]: 102.74%
remaining activity at 10 µM [2]: 103%
% Enzyme Activity (relative to DMSO controls) [3]: 93.47%
remaining activity at 10 µM [3]: 95.1%
% Enzyme Activity (relative to DMSO controls) [4]: 99.19%
remaining activity at 10 µM [4]: 100%
% Enzyme Activity (relative to DMSO controls) [5]: 98.90%
remaining activity at 10 µM [5]: 99.8%
